In patent US8481586B2, “Pyrrolo[2,3-a] carbazoles and use thereof as PIM kinase inhibitors” (Centre National de la Recherche Scientifique, priority 2008, dated 2013):

Key:
Type in all cases: biochemical
PIM-3 = PIM-3 (Homo sapiens (Human), UniProt Q86V86); assay: inhibition test on kinase PIM-3 (residual activity, IC50); details: for remaining activity at 10 µM: product at 10 μmol/L, Table 2, N.I. = not inhibitory, read-out: Percentage of residual activity PIM-3; for IC50: ten concentrations, dose-inhibition curve
Description: (§1) MKK1, ERK 1, ERK 2, JNK1, JNK2, JNK3, p38a MAPK, p38b MAPK, p38g MAPK, p38s MAPK, ERK8, RSK1, RSK2, PDK1, PKBa, PKBb, SGK1, S6K1, PKA, ROCK2, PRK2, PKCa, PKC zeta, PKD1, MSK1, MNK1, MNK2, MAPKAP-K2, MAPKAP-K3, PRAK, CAMKKa, CAMKKb, CAMK1, SmMLCK, PHK, CHK1, CHK2, GSK3b, CDK2/cyclin A, PLK1, PLK1 (Okadaic acid), Aurora B, Aurora C, AMPK, MARK3, BRSK2, MELK, CK1, CK2, NEK2a, NEK6, NEK7, IKKb, PIM-1, PIM-2, PIM-3, SRPK1, MST2, EF2K, HIPK2, HIPK3, PAK-4, PAK5, PAK6, Src, Lck, CSK.
(§2) The results in terms of residual activity of the kinases after being placed in contact with the compounds of Examples 2, 3 and 5, at a concentration of 10 μM (10 μmol/L), are shown in Table 1 below.
(§3) The higher the residual activity of the kinase tested, the lower the inhibitory activity of the test compounds on the tested kinase.
(§4) The compounds according to the invention were then tested on the kinases PIM-1, PIM-2 and PIM-3.
(§5) The results in terms of percentage of residual activity after placing the compounds according to the invention in contact with each of the kinases PIM-1, PIM-2 and PIM-3 are given in Table 2 below.
(§6) The higher the residual activity, the lower the inhibitory activity of the test compounds.
(§7) The mean inhibitory concentrations (IC50) of certain preferred compounds of the invention were determined in the following manner: the IC50 values were measured after performing the inhibition tests on the kinases PIM-1, PIM-2 and PIM-3 at ten different concentrations for each test compound, and the IC50 value was determined from the dose-inhibition curves obtained.

PIM-2 = PIM-2 (Homo sapiens (Human), UniProt Q9P1W9); assay: inhibition test on kinase PIM-2 (residual activity, IC50); details: product at 10 μmol/L, Table 2, N.I. = not inhibitory; for remaining activity at 10 µM: read-out: Percentage of residual activity PIM-2
Description: as §1, §2, §3, §4, §5, §6, §7

PIM-1 = PIM-1 (Homo sapiens (Human), UniProt P11309); assay: inhibition test on kinase PIM-1 (residual activity, IC50); details: for remaining activity at 10 µM: read-out: Percentage of residual activity PIM-1; for IC50: ten concentrations, dose-inhibition curve
Description: as §1, §2, §3, §4, §5, §6, §7

[1] = product at 10 μmol/L, Table 2, N.I. = not inhibitory

Sequence of PIM-1 (P11309 whole entry, species assumed): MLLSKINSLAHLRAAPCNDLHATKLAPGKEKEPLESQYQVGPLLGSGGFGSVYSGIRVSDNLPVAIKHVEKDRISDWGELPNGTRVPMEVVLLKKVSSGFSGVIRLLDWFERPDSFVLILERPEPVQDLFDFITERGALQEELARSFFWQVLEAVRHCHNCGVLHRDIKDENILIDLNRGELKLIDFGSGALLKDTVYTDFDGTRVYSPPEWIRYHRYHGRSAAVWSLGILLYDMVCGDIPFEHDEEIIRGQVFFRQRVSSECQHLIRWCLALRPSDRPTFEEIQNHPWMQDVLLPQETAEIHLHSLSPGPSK
Sequence of PIM-2 (Q9P1W9 whole entry, species assumed): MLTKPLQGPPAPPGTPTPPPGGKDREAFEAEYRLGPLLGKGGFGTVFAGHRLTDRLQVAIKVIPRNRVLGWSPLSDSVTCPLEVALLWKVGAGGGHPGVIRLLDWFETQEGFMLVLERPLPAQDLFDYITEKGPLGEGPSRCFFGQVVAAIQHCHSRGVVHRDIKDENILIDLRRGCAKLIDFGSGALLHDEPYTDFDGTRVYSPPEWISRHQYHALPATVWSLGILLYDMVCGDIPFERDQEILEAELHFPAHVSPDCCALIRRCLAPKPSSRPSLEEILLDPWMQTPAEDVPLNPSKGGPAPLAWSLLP

Structure (SMILES)	remaining activity at 10 µM (PIM-3) [%]	remaining activity at 10 µM (PIM-2) [%]	remaining activity at 10 µM (PIM-1; [1]) [%]	IC50 (PIM-3) [nM]	IC50 (PIM-1) [nM]	Percentage of residual activity PIM-2 (PIM-2)	Percentage of residual activity PIM-1 (PIM-1; [1])
O=[N+]([O-])c1ccc2[nH]c3c(ccc4cc[nH]c43)c2c1 [Example 32, 7-nitro-1,10-dihydropyrrolo[2,3-a]carbazole]	11	23	9	–	–	–	–
Fc1ccc2[nH]c3c(ccc4cc[nH]c43)c2c1 [Example 28, 7-fluoro-1,10-dihydropyrrolo[2,3-a]carbazole]	20	84	35	–	–	–	–
OCc1c[nH]c2c1ccc1c3ccccc3[nH]c12 [Example 4, (1,10-dihydropyrrolo[2,3-a]carbazol-3-yl)methanol]	18	47	28	–	–	–	–
CCN(CC)C(=O)/C(=N\O)c1c[nH]c2c1ccc1c3ccccc3[nH]c12 [Example 13, 2-(1,10-dihydropyrrolo[2,3-a]carbazol-3-yl)-N,N-diethyl-2-hydroxyiminoethanamide]	21	27	41	–	–	–	–
O=Cc1c[nH]c2c1ccc1c2[nH]c2cc(Cl)cc(Cl)c21 [Example 48, 6,8-dichloro-1,10-dihydropyrrolo[2,3-a]carbazole-3-carbaldehyde]	6	34	8	–	–	–	–
O=Cc1c[nH]c2c1ccc1c3cc(-c4ccc(F)cc4F)ccc3[nH]c12 [Example 40, 7-(2,4-difluorophenyl)-1,10-dihydropyrrolo[2,3-a]-carbazole-3-carbaldehyde]	6	32	6	200	660	–	–
O=S(=O)(c1ccccc1)n1ccc2ccc3c4ccccc4[nH]c3c21 [Example 1, 1-benzenesulfonyl-1,10-dihydropyrrolo[2,3-a]carbazole]	64	62	61	–	–	–	–
Cc1ccc2c(c1)[nH]c1c2ccc2c(C=O)c[nH]c21 [Example 52, 8-methyl-1,10-dihydropyrrolo[2,3-a]carbazole-3-carbaldehyde]	8	39	15	–	–	–	–
O=Cc1c[nH]c2c1ccc1c3cc(-c4ccc(-c5ccccc5)cc4)ccc3[nH]c12 [Example 37, 7-(4-biphenyl)-1,10-dihydropyrrolo[2,3-a]carbazole-3-carbaldehyde]	48	70	39	–	–	–	–
Brc1ccc2[nH]c3c(ccc4cc[nH]c43)c2c1 [Example 15, 7-bromo-1,10-dihydropyrrolo[2,3-a]carbazole]	8	46	12	440	–	–	–
O=Cc1c[nH]c2c1ccc1c3cc(-c4ccc(F)cc4)ccc3[nH]c12 [Example 39, 7-(4-fluorophenyl)-1,10-dihydropyrrolo[2,3-a]carbazole-3-carbaldehyde]	15	55	15	–	–	–	–
CCOC(=O)C(=O)c1c[nH]c2c1ccc1c3ccccc3[nH]c12 [Example 8, ethyl 2-(1,10-dihydropyrrolo[2,3-a]carbazol-3-yl)-2-oxoacetate]	33	47	44	–	–	–	–
O=Cc1c[nH]c2c1ccc1c3cc(Br)ccc3[nH]c12 [Example 16, 7-bromo-1,10-dihydropyrrolo[2,3-a]carbazole-3-carbaldehyde]	6	57	6	40	570	–	–
O=Cc1c[nH]c2c1ccc1c3cc([N+](=O)[O-])ccc3[nH]c12 [Example 50, 7-nitro-1,10-dihydropyrrolo[2,3-a]carbazole-3-carbaldehyde]	35	–	–	–	–	N.I.	N.I.
N#Cc1ccc2[nH]c3c(ccc4cc[nH]c43)c2c1 [Example 31, 1,10-dihydropyrrolo[2,3-a]carbazole-7-carbonitrile]	4	26	9	–	–	–	–
O=Cc1c[nH]c2c1ccc1c3cc(-c4ccc(C(F)(F)F)cc4)ccc3[nH]c12 [Example 41, 7-(4-trifluoromethylphenyl)-1,10-dihydropyrrolo-[2,3-a]carbazole-3-carbaldehyde]	23	52	28	–	–	–	–
O=Cc1c[nH]c2c1ccc1c3cc(F)ccc3[nH]c12 [Example 46, 7-Fluoro-1,10-dihydropyrrolo[2,3-a]carbazole-3-carbaldehyde]	5	21	4	–	–	–	–
OCCc1c[nH]c2c1ccc1c3ccccc3[nH]c12 [Example 9, 2-(1,10-dihydropyrrolo[2,3-a]carbazol-3-yl)ethanol]	21	50	35	–	–	–	–
O=C(c1c[nH]c2c1ccc1c3ccccc3[nH]c12)C(F)(F)F [Example 6, 1-(1,10-dihydropyrrolo[2,3-a]carbazol-3-yl)-2,2,2-trifluoroethanone]	7	30	20	170	–	–	–
Brc1cccc2c1[nH]c1c2ccc2cc[nH]c21 [Example 27, 9-bromo-1,10-dihydropyrrolo[2,3-a]carbazole]	43	–	90	–	–	N.I.	–
O=Cc1c[nH]c2c1ccc1c3cc(-c4ccccc4)ccc3[nH]c12 [Example 38, 7-phenyl-1,10-dihydropyrrolo[2,3-a]carbazole-3-carbaldehyde]	15	53	16	–	–	–	–
COc1cccc(-c2ccc3[nH]c4c(ccc5c(C=O)c[nH]c54)c3c2)c1 [Example 36, 7-(3-methoxyphenyl)-1,10-dihydropyrrolo[2,3-a]-carbazole-3-carbaldehyde]	12	31	17	–	–	–	–
CCN(CC)C(=O)C(=O)c1c[nH]c2c1ccc1c3ccccc3[nH]c12 [Example 10, 2-(1,10-dihydropyrrolo[2,3-a]carbazol-3-yl)-N,N-diethyl-2-oxoacetamide]	39	51	54	–	–	–	–
O=Cc1c[nH]c2c1ccc1c2[nH]c2cccc(Br)c21 [Example 44, 6-bromo-1,10-dihydropyrrolo[2,3-a]carbazole-3-carbaldehyde]	5	6	2	–	–	–	–
COc1cccc(-c2ccc3[nH]c4c(ccc5cc[nH]c54)c3c2)c1 [Example 18, 7-(3-methoxyphenyl)-1,10-dihydropyrrolo[2,3-a]-carbazole]	39	51	46	–	–	–	–
Cc1ccc2c(c1)[nH]c1c2ccc2cc[nH]c21 [Example 35, 8-methyl-1:10-dihydropyrrolo[2,3-a]carbazole]	13	–	81	–	–	N.I.	–
Brc1cccc2[nH]c3c(ccc4cc[nH]c43)c12 [Example 26, 6-bromo-1,10-dihydropyrrolo[2,3-a]carbazole]	11	37	8	–	–	–	–
O=Cc1c[nH]c2c1ccc1c3cccc(Br)c3[nH]c12 [Example 45, 9-bromo-1,10-dihydropyrrolo[2,3-a]carbazole-3-carbaldehyde]	9	28	3	–	–	–	–
O=S(=O)(c1ccccc1)n1ccc2ccc3c4cc(Br)ccc4[nH]c3c21 [Example 14, 1-benzenesulfonyl-7-bromo-1,10-dihydropyrrolo-[2,3-a]carbazole]	61	52	51	–	–	–	–
CCN(CC)CC(O)c1c[nH]c2c1ccc1c3ccccc3[nH]c12 (stereo not drawn) [Example 12, 1-(1,10-dihydropyrrolo[2,3-a]carbazol-3-yl)-2-diethylaminoethanol]	16	53	24	–	–	–	–
